Assay results reported in the supplement of paper PMC11451515.

Experiments:
Settings in all cases: 48 h
NOMO1 [1] = experiment: cell viability relative to DMSO control; higher = less cytotoxic
In short: (§1)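 In 1536-well plates, 5 μl of leukemia cells were seeded per well: 500 cells/well for NOMO1 or SEM and 1000 cells/well for P12-Ichikawa. Each line had first been adapted for at least four passages in each medium. Library compounds in DMSO were pin-dosed at 11 threefold concentrations between 47 μM and 0.79 nM, and CellTiter-Glo One luminescence was read after 48 h at 37°C. Viability is a per-plate percentage relative to DMSO wells, with cell-free wells as background.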

P12-Ichikawa [2] = experiment: as above
In short: as §1

SEM cells [3] = experiment: as above
In short: as §1

NOMO1 [4] = experiment: AUC of viability dose-response curve (% viability x log10 dose units); higher = less sensitive
In short: (§2)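 Leukemia cells adapted to each medium were seeded in 1536-well plates (500 or 1000 cells/well). They were dosed with library compounds in DMSO at 11 threefold doses, 47 μM to 0.79 nM, for 48 h at 37°C. CellTiter-Glo One luminescence was normalised per plate to DMSO and cell-free wells. Area under the curve was integrated by trapezoidal rule over log10 doses on a four-parameter log-logistic fit; curves exceeding full viability were scaled and curves failing quality control removed.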

P12-Ichikawa [5] = experiment: as above
In short: as §2

SEM cells [6] = experiment: as above
In short: as §2

O=C(O)CCC1CCC(c2cc(F)ccc2F)([S+](=O)([O-])c2ccc(Cl)cc2)CC1 (stereo not drawn)
cell viability [%]
Settings	NOMO1 [1]	P12-Ichikawa [2]	SEM cells [3]
HPLM + 10% dialyzed FBS, 0.000781 µM	98.6	105	105
HPLM + 10% dialyzed FBS, 0.00234 µM	117	114	93.5
HPLM + 10% dialyzed FBS, 0.00702 µM	137	117	110
HPLM + 10% dialyzed FBS, 0.0211 µM	124	115	114
HPLM + 10% dialyzed FBS, 0.0632 µM	140	114	115
HPLM + 10% dialyzed FBS, 0.19 µM	139	121	115
HPLM + 10% dialyzed FBS, 0.569 µM	146	128	109
HPLM + 10% dialyzed FBS, 1.71 µM	85.2	118	117
HPLM + 10% dialyzed FBS, 5.12 µM	30.5	86.7	119
HPLM + 10% dialyzed FBS, 15.4 µM	35.4	21.5	125
HPLM + 10% dialyzed FBS, 46.1 µM	34	9.14	116
RPMI 5 mM glucose + 10% FBS, 0.000781 µM	122	99	104
RPMI 5 mM glucose + 10% FBS, 0.00234 µM	115	125	110
RPMI 5 mM glucose + 10% FBS, 0.00702 µM	125	117	117
RPMI 5 mM glucose + 10% FBS, 0.0211 µM	124	126	126
RPMI 5 mM glucose + 10% FBS, 0.0632 µM	117	118	112
RPMI 5 mM glucose + 10% FBS, 0.19 µM	146	116	114
RPMI 5 mM glucose + 10% FBS, 0.569 µM	126	128	114
RPMI 5 mM glucose + 10% FBS, 1.71 µM	64	140	104
RPMI 5 mM glucose + 10% FBS, 5.12 µM	25.2	109	110
RPMI 5 mM glucose + 10% FBS, 15.4 µM	21.7	24.3	113
RPMI 5 mM glucose + 10% FBS, 46.1 µM	23.8	9.78	81.6
RPMI 5 mM glucose + 10% dialyzed FBS, 0.000781 µM	109	103	103
RPMI 5 mM glucose + 10% dialyzed FBS, 0.00234 µM	137	117	105
RPMI 5 mM glucose + 10% dialyzed FBS, 0.00702 µM	104	123	115
RPMI 5 mM glucose + 10% dialyzed FBS, 0.0211 µM	129	123	122
RPMI 5 mM glucose + 10% dialyzed FBS, 0.0632 µM	126	123	122
RPMI 5 mM glucose + 10% dialyzed FBS, 0.19 µM	137	118	128
RPMI 5 mM glucose + 10% dialyzed FBS, 0.569 µM	125	124	109
RPMI 5 mM glucose + 10% dialyzed FBS, 1.71 µM	102	125	116
RPMI 5 mM glucose + 10% dialyzed FBS, 5.12 µM	28.5	112	123
RPMI 5 mM glucose + 10% dialyzed FBS, 15.4 µM	33	56.7	111
RPMI 5 mM glucose + 10% dialyzed FBS, 46.1 µM	28.2	13.2	106

AUC of viability dose-response curve
Settings	NOMO1 [4]	P12-Ichikawa [5]	SEM cells [6]
HPLM + 10% dialyzed FBS	373	403	464
RPMI 5 mM glucose + 10% FBS	357	412	470
RPMI 5 mM glucose + 10% dialyzed FBS	378	428	468
